Here are results for twelve compounds from US20240140957A1, “BRIDGED COMPOUNDS AS KRAS G12D INHIBITOR AND DEGRADER AND THE USE THEREOF” (BeiGene Switzerland GmbH, priority 2021, published 2024).

Structures are written as SMILES. Where two headings read alike, the source gives them in different places.

As a reminder, the IC50 is the midpoint of a concentration-inhibition curve.

One test deals with KRAS G12D:SOS1 (Homo sapiens, UniProt P01116, G12D). Briefly: KRAS G12D:SOS1 GDP TR-FRET assay. It is filed as binding. Particulars: GST-KRAS G12D 37.5 nM, GDP 10 μM, His-SOS1 18 nM. In general terms: TR-FRET usually uses a lanthanide donor and a delayed reading to cut background.
Another test has as its target WT KRAS:SOS1 (Homo sapiens, UniProt P01116). Nature of the test: KRAS WT:SOS1 GDP TR-FRET assay. It is filed as binding. The following applies: GST-WT KRAS 37.5 nM, GDP 10 μM, His-SOS1 18 nM.
The next test concerns the target GDP-loaded KRAS G12D (Homo sapiens, UniProt P01116, G12D). Nature of the test: KRAS G12D Probe Displacement Assay. Format: binding.
In the next test the target is GDP-loaded WT KRAS (Homo sapiens, UniProt P01116). Briefly: KRAS WT Probe Displacement Assay. It is filed as binding.
Test [1] has as its system pERK1/2 (THR202/TYR204) in AsPC-1 cells. Briefly: pERK Assay (HTRF) in AsPC-1 cells. Particulars: Homo sapiens, ASPC1, 2 h compound treatment. It is filed as cell-based.
The target of test [2] is T1, KRAS G12D protein in AsPC-1 cells (Homo sapiens, UniProt P01116, G12D).
T1 construct: endogenous in cells; host or cells: AsPC-1
Briefly: Western Blotting Assay in AsPC-1 cells. Format: cell-based. The following applies: 48 h compound treatment, concentration 3 uM. Here is the method: AsPC-1 cell line was used in this study. […] 400000 AsPC-1 cells per well in 1 mL culture medium were seed in the 12-well plate for 4 hours. Cells were treated with an appropriate dilution series of compounds. After 48 h compound treatment, medium was aspirated, the cells were washed with PBS, and then 30 μL of 1× protein lysis buffer (Cell Signaling Technology) containing protease inhibitors (Merck) and phosphatase inhibitors (Sigma) was added. The cells were lysed, and after centrifugation, the supernatants were quantified by BCA Protein assay Kit (Thermo Fisher). 4× loading Buffer (Thermo Fisher) was added to equal amounts of total protein from each sample and heated at 95° C. for 5 minutes. […] of cell lysates were loaded onto a 12% NuPAGE Bis-Tris Gel (Thermo Fisher), electro-transferred to NC membranes (Thermo Fisher), The membranes were blocked at least 1 hour with Blocking reagent (LI-COR), and then incubated overnight with anti-KRAS (LSBio, LS-C175665) or pERK (Cell Signaling Technology, 4370L) antibodies and as loading control anti-β-actin (Cell Signaling Technology, 3700S) or anti-GAPDH (Cell Signaling Technology, 97166S) at 4° C. with gentle shaking. The membranes were washed three times with TBST, and incubated at least 1 hour at room temperature with anti-mouse or anti-Rabbit secondary fluorescent antibody (Thermo Fisher, A32729; LI-COR, 926-32213). […]
For orientation: A western blot detects proteins with antibodies after separation by electrophoresis.

Setting [3] is: KRAS G12D 0.5 nM, biotinylated probe 2 4 nM, read-out: KRAS G12D Probe Displacement Assay IC50.
[4] abbreviates: WT KRAS 3 nM, biotinylated probe 1 60 nM, read-out: KRAS WT Probe Displacement Assay IC50.

On to `Cc1cc(N)nc(-c2c(Cl)cc3c(N4CC5CCC(C4)N5)nc(O[C@@H](C)CN4CCCCC4)nc3c2F)c1C(F)(F)F` [Example E35, 6-(4-(3,8-diazabicyclo[3.2.1]octan-3-yl)-6-chloro-8-fluoro-2-(((S)-1-(piperidin-1-yl)propan-2-yl)oxy)quinazolin-7-yl)-4-methyl-5-(trifluoromethyl)pyridin-2-amine], for which the IC50 against KRAS G12D:SOS1 came out at 22 nM; at WT KRAS:SOS1 it was 3300 nM; on GDP-loaded KRAS G12D (setting [3]), 130 nM; at GDP-loaded WT KRAS (setting [4]), 7300 nM; in test [1] it was 4350 nM.
For `CN1C[C@H](F)C[C@H]1COc1nc(N2C3CCC2CNC3)c2cc(Cl)c(-c3ccc(F)c4sc(N)nc34)c(F)c2n1` [Example E36, 4-(4-(3,8-diazabicyclo[3.2.1]octan-8-yl)-6-chloro-8-fluoro-2-(((2S,4R)-4-fluoro-1-methylpyrrolidin-2-yl)methoxy)quinazolin-7-yl)-7-fluorobenzo[d]thiazol-2-amine] the same measures were 10 nM, 242 nM, 3.7 nM, 120 nM and 715 nM.
For `Cc1cc(N)nc(-c2c(Cl)cc3c(N4CC5CCC(C4)N5)nc(OC[C@@H]4C[C@@H](F)CN4C)nc3c2F)c1C(F)(F)F` [Example E37, 6-(4-(3,8-diazabicyclo[3.2.1]octan-3-yl)-6-chloro-8-fluoro-2-(((2S,4R)-4-fluoro-1-methylpyrrolidin-2-yl)methoxy)quinazolin-7-yl)-4-methyl-5-(trifluoromethyl)pyridin-2-amine] the same measures were 13 nM, 692 nM, 16 nM, 700 nM and 807 nM.
In the case of `CC1CCCC(C)N1C[C@H](C)Oc1nc(N2CC3CCC(C2)N3)c2cc(Cl)c(-c3ccc(F)c4sc(N)nc34)c(F)c2n1` (some centres unmarked) [Example E38], the IC50 against KRAS G12D:SOS1 turned out to be 12 nM; on WT KRAS:SOS1, 804 nM; at GDP-loaded KRAS G12D (setting [3]), 32 nM; on GDP-loaded WT KRAS (setting [4]), 1400 nM; in test [1] it was 1310 nM.
With `CN(C)C(=O)CCOc1nc(N2CC3CCC(C2)N3)c2cc(Cl)c(-c3ccc(F)c4sc(N)nc34)c(F)c2n1` [Example E40, 3-((7-(2-amino-7-fluorobenzo[d]thiazol-4-yl)-4-(3,8-diazabicyclo[3.2.1]octan-3-yl)-6-chloro-8-fluoroquinazolin-2-yl)oxy)-N,N-dimethylpropanamide], the half-maximal inhibitory concentration (IC50) at KRAS G12D:SOS1 was 24 nM; at WT KRAS:SOS1 it was 2210 nM; on GDP-loaded KRAS G12D (setting [3]), 41 nM; on GDP-loaded WT KRAS (setting [4]) it was 1400 nM; in test [1] it was more than 10000 nM.
Regarding `C[C@@H](CN1CCOCC1)Oc1nc(N2C3CCC2CNC3)c2cc(Cl)c(-c3ccc(F)c4sc(N)nc34)c(F)c2n1` [Example E41, 4-(4-(3,8-diazabicyclo[3.2.1]octan-8-yl)-6-chloro-8-fluoro-2-(((S)-1-morpholinopropan-2-yl)oxy)quinazolin-7-yl)-7-fluorobenzo[d]thiazol-2-amine], the half-maximal inhibitory concentration (IC50) turned out to be 11 nM against KRAS G12D:SOS1; 438 nM on WT KRAS:SOS1; 11 nM at GDP-loaded KRAS G12D (setting [3]); 230 nM at GDP-loaded WT KRAS (setting [4]); 1480 nM in test [1].
Consider `C[C@@H](CN1CCC(F)C1)Oc1nc(N2C3CCC2CNC3)c2cc(Cl)c(-c3ccc(F)c4sc(N)nc34)c(F)c2n1` (stereo partly drawn) [Example E43, 4-(4-(3,8-diazabicyclo[3.2.1]octan-8-yl)-6-chloro-8-fluoro-2-(((2S)-1-(3-fluoropyrrolidin-1-yl)propan-2-yl)oxy)quinazolin-7-yl)-7-fluorobenzo[d]thiazol-2-amine], for which the IC50 stood at 17 nM on KRAS G12D:SOS1; 488 nM at WT KRAS:SOS1; 8.4 nM on GDP-loaded KRAS G12D (setting [3]); 320 nM at GDP-loaded WT KRAS (setting [4]); 2550 nM in test [1].
As for `Cc1ncsc1-c1ccc([C@H](C)NC(=O)[C@@H]2C[C@@H](O)CN2C(=O)[C@@H](NC(=O)COC2CCN(CC(C)Oc3nc(N4CC5CCC(C4)N5)c4cc(Cl)c(-c5ccc(F)c6sc(N)nc56)c(F)c4n3)CC2)C(C)(C)C)cc1` (stereo partly drawn) [Example E44, (2S,4R)-1-((2S)-2-(2-((1-(2-((7-(2-amino-7-fluorobenzo[d]thiazol-4-yl)-4-(3,8-diazabicyclo[3.2.1]octan-3-yl)-6-chloro-8-fluoroquinazolin-2-yl)oxy)propyl)piperidin-4-yl)oxy)acetamido)-3,3-dimethylbutanoyl)-4-hydroxy-N—((S)-1-(4-(4-methylthiazol-5-yl)phenyl)ethyl)pyrrolidine-2-carboxamide], the “KRAS G12D protein level decrease” value in test [2] stood at 70%.
Consider `Cc1cc(N)nc(-c2c(Cl)cc3c(N4CC5CCC(C4)N5)nc(OC[C@@]45CCCN4C[C@H](F)C5)nc3c2F)c1C(F)(F)F` [Example E49, 6-(4-(3,8-diazabicyclo[3.2.1]octan-3-yl)-6-chloro-8-fluoro-2-(((2R,7aS)-2-fluorotetrahydro-1H-pyrrolizin-7a(5H)-yl)methoxy)quinazolin-7-yl)-4-methyl-5-(trifluoromethyl)pyridin-2-amine], for which the IC50 on KRAS G12D:SOS1 turned out to be 4.8 nM; at WT KRAS:SOS1, 35 nM; at GDP-loaded KRAS G12D it was 3.1 nM; on GDP-loaded WT KRAS, 49 nM; in test [1] it was 84 nM.
For `Cc1cc(N)nc(-c2c(Cl)cc3c(N4CC5CCC(C4)N5)nc(OCC45CCCN4CC(F)C5)nc3c2F)c1C(F)(F)F` (centres unmarked) [Example E50, 6-(4-(3,8-diazabicyclo[3.2.1]octan-3-yl)-6-chloro-8-fluoro-2-((2-fluorotetrahydro-1H-pyrrolizin-7a(5H)-yl)methoxy)quinazolin-7-yl)-4-methyl-5-(trifluoromethyl)pyridin-2-amine] the same measures were 7.6 nM, 140 nM, 4 nM, 160 nM and 312 nM.
As to `CN1C[C@H](F)C[C@H]1COc1nc(N2CC3CCC(C2)N3)c2cc(C(F)(F)F)c(-c3ccc(F)c4sc(N)nc34)c(F)c2n1` [Example E51, 4-(4-(3,8-diazabicyclo[3.2.1]octan-3-yl)-8-fluoro-2-(((2S,4R)-4-fluoro-1-methylpyrrolidin-2-yl)methoxy)-6-(trifluoromethyl)quinazolin-7-yl)-7-fluorobenzo[d]thiazol-2-amine], the half-inhibitory concentration (IC50) at KRAS G12D:SOS1 was found to be 6.5 nM; against WT KRAS:SOS1 it was 61 nM; on GDP-loaded KRAS G12D (setting [3]), 1.1 nM; on GDP-loaded WT KRAS (setting [4]) it was 33 nM; in test [1], 202 nM.
Regarding `CN1C[C@H](F)C[C@H]1COc1nc(N2CC3CCC(C2)N3)c2cc(Cl)c(-c3ccc(F)c4sc(N)nc34)c(Cl)c2n1` [Example E53, 4-(4-(3,8-diazabicyclo[3.2.1]octan-3-yl)-6,8-dichloro-2-(((2S,4R)-4-fluoro-1-methylpyrrolidin-2-yl)methoxy)quinazolin-7-yl)-7-fluorobenzo[d]thiazol-2-amine], the half-maximal inhibitory concentration (IC50) on KRAS G12D:SOS1 amounted to 5.1 nM; on WT KRAS:SOS1, 132 nM; on GDP-loaded KRAS G12D (setting [3]), 1.2 nM; on GDP-loaded WT KRAS (setting [4]) it was 47 nM; in test [1], 380 nM.
